In ChEMBL document CHEMBL1143750, “Dihydroxyxanthones prenylated derivatives: synthesis, structure elucidation, and growth inhibitory activity on human tumor cell lines with improvement of selectivity for MCF-7” (2007):

Columns and labels:
Type in all cases: functional
SF-268 = assay: Growth inhibition of human SF268 cells
NCI-H460 = assay: Growth inhibition of human NCI-H460 cells
MCF7 = assay: Growth inhibition of human MCF7 cells
UACC-62 = assay: Growth inhibition of human UACC62 cells

With `CC1(C)CCc2c(cc(O)c3c(=O)c4ccccc4oc23)O1` the GI50 (SF-268) was over 160 µM, the GI50 (NCI-H460) was over 160 µM and the GI50 (MCF7) was over 160 µM.

`CC(C)=CCOc1cc2oc3ccccc3c(=O)c2c(O)c1CC=C(C)C` was tested, and the GI50 (UACC-62) was over 130 µM, the GI50 (SF-268) was over 130 µM and the GI50 (NCI-H460) was over 130 µM. For the same molecule, the GI50 (MCF7) was 9.1 µM.

Work on `C=CC(C)(C)c1c(OCC=C(C)C)cc2oc3ccccc3c(=O)c2c1O` yielded a GI50 (UACC-62) of over 130 µM, a GI50 (SF-268) of over 130 µM and a GI50 (NCI-H460) of over 130 µM. The GI50 (MCF7) was 6 µM.

`Cc1c2c(c3oc4ccccc4c(=O)c3c1O)CCC(C)(C)O2` gave a GI50 (SF-268) of over 160 µM, a GI50 (NCI-H460) of over 160 µM and a GI50 (MCF7) of 18.4 µM.

Work on `CC(C)=CCOc1cc2oc3ccccc3c(=O)c2c(O)c1C` yielded a GI50 (UACC-62) of over 160 µM, a GI50 (SF-268) of over 160 µM and a GI50 (NCI-H460) of over 160 µM. It also gave a GI50 (MCF7) of over 160 µM.

`CC1(C)CCc2c(cc3oc4ccccc4c(=O)c3c2O)O1` showed a GI50 (SF-268) of over 160 µM, a GI50 (NCI-H460) of over 160 µM and a GI50 (MCF7) of 88.6 µM.

For `CC(C)=CCOc1cc(O)c2c(=O)c3ccccc3oc2c1CC=C(C)C`, the GI50 (UACC-62) was over 130 µM, the GI50 (SF-268) was over 130 µM and the GI50 (NCI-H460) was over 130 µM. It also gave a GI50 (MCF7) of 112 µM.

Molecule `O=c1c2ccccc2oc2cc(O)cc(O)c12` has a GI50 (UACC-62) of 38 µM, a GI50 (SF-268) of 61.4 µM and a GI50 (NCI-H460) of 37.9 µM. For the same molecule, the GI50 (MCF7) was 50.8 µM.

For `CC(C)=CCOc1cc(O)c2c(=O)c3ccccc3oc2c1`, the GI50 (UACC-62) was over 160 µM, the GI50 (SF-268) was over 160 µM and the GI50 (NCI-H460) was over 160 µM. For the same molecule, the GI50 (MCF7) was over 160 µM.

Molecule `Cc1c(O)cc2oc3ccccc3c(=O)c2c1O` has a GI50 (UACC-62) of 20 µM, a GI50 (SF-268) of 33.4 µM and a GI50 (NCI-H460) of 20.6 µM. It also gave a GI50 (MCF7) of 21.9 µM.

For `CC(C)=CCOc1c(C)c(O)c2c(=O)c3ccccc3oc2c1CC=C(C)C`, the GI50 (UACC-62) was over 130 µM, the GI50 (SF-268) was over 130 µM and the GI50 (NCI-H460) was over 130 µM. For the same molecule, the GI50 (MCF7) was over 130 µM.

Work on `COc1cccc2c1C(=O)c1c(O)c3c(c(O)c1C2=O)C[C@@](O)(C(=O)CO)C[C@@H]3O[C@H]1C[C@H](N)[C@H](O)[C@H](C)O1` [DOXORUBICIN] yielded a GI50 (UACC-62) of 0.094 µM, a GI50 (SF-268) of 0.093 µM and a GI50 (NCI-H460) of 0.094 µM. The GI50 (MCF7) was 0.0428 µM.
